Source: EP4745135A1 (Gluetacs Therapeutics (Shanghai) Co., Ltd., priority 2023, dated 2025)

Assays:
[1] = target: T1, CK1α (Homo sapiens, UniProt P48729+Q96SW2); test: Western blot, degradation of substrate protein in hPBMCs; type: cell-based; conditions: Western blot, 24 hours of compound treatment, compounds tested at 50 nM and 500 nM (concentration for the table not stated)
T1 construct: effects of the compounds of the present disclosure on the expression of target proteins in cells; endogenous in cells; host or cells: human PBMCs (Milecell Biotechnologies)
T1 sequence (P48729 whole entry): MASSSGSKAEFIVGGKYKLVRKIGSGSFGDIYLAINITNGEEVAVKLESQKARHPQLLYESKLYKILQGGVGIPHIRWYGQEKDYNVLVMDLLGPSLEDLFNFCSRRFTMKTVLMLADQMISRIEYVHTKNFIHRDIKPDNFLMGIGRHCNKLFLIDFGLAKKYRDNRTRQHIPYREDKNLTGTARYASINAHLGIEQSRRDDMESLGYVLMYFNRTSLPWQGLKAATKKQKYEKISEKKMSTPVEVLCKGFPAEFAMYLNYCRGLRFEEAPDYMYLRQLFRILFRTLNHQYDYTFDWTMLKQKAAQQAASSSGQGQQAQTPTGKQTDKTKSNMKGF
T1 sequence (Q96SW2 whole entry): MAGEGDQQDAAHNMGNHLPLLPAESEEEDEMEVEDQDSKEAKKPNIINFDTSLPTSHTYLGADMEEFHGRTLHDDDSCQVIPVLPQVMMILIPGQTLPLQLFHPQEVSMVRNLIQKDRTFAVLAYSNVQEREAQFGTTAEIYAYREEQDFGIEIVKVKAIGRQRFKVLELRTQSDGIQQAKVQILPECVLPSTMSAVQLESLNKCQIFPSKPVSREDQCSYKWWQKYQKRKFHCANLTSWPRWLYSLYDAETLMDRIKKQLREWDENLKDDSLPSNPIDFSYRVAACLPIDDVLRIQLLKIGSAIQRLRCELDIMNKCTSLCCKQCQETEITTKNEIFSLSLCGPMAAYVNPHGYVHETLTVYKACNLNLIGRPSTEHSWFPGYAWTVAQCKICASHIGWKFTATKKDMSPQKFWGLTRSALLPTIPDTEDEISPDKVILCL
T1 sequence (Q16531 whole entry partner): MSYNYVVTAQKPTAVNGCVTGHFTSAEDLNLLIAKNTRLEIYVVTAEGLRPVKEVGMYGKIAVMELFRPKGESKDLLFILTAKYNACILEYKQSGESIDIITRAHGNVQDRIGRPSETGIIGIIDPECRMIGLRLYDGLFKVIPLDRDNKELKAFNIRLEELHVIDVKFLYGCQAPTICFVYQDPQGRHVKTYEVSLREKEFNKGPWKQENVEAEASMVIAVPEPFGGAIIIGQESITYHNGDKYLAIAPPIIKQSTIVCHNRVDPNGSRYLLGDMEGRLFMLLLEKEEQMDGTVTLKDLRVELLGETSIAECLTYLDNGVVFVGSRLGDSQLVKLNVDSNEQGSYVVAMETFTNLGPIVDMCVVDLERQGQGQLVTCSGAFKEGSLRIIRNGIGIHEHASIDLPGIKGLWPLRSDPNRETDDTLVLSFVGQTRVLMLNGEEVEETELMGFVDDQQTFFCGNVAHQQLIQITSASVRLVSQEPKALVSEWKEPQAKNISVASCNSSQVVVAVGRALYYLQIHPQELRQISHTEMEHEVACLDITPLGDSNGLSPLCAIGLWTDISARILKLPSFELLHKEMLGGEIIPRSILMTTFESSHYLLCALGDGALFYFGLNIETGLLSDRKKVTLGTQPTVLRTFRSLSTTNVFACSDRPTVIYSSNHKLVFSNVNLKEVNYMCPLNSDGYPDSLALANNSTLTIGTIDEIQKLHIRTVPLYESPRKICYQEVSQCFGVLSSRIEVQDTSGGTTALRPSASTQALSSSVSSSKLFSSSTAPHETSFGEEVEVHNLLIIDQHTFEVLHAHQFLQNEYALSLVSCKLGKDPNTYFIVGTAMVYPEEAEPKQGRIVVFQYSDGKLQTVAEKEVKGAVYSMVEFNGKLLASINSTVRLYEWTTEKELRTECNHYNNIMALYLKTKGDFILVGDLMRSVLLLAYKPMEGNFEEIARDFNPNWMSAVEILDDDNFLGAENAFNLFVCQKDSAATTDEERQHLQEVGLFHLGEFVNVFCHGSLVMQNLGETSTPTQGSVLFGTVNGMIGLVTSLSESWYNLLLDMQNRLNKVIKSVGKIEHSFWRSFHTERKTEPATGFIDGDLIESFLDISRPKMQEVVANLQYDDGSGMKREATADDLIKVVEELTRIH

[2] = target: T2, IKZF1 (Homo sapiens, UniProt Q13422+Q96SW2); test: as above; type: cell-based; conditions: Western blot, 24 hours of compound treatment, compounds tested at 50 nM and 500 nM (concentration for the table not stated)
T2 construct: effects of the compounds of the present disclosure on the expression of target proteins in cells; endogenous in cells; host or cells: human PBMCs (Milecell Biotechnologies)
T2 sequence (Q13422 whole entry): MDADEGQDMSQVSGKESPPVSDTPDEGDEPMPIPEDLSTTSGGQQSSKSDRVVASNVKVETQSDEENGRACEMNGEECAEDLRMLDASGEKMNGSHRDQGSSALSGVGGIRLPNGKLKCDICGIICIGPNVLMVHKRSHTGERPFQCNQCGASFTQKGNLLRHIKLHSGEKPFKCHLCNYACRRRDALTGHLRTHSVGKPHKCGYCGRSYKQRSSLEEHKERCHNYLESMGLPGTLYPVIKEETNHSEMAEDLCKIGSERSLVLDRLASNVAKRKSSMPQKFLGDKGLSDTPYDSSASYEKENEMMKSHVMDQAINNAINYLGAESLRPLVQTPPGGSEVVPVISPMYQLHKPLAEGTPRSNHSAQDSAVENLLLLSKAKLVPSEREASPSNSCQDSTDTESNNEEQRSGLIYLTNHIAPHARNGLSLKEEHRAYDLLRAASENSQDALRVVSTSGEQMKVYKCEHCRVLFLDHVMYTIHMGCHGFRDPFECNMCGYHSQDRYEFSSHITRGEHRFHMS
T2 sequence (Q96SW2 whole entry): as the sequence (Q96SW2 whole entry) above
T2 sequence (Q16531 whole entry partner): as the sequence (Q16531 whole entry partner) above

[3] = target: T3, IKZF2 (Homo sapiens, UniProt Q96SW2+Q9UKS7); test: as above; type: cell-based; conditions: Western blot, 24 hours of compound treatment, compounds tested at 50 nM and 500 nM (concentration for the table not stated)
T3 construct: effects of the compounds of the present disclosure on the expression of target proteins in cells; endogenous in cells; host or cells: human PBMCs (Milecell Biotechnologies)
T3 sequence (Q9UKS7 whole entry): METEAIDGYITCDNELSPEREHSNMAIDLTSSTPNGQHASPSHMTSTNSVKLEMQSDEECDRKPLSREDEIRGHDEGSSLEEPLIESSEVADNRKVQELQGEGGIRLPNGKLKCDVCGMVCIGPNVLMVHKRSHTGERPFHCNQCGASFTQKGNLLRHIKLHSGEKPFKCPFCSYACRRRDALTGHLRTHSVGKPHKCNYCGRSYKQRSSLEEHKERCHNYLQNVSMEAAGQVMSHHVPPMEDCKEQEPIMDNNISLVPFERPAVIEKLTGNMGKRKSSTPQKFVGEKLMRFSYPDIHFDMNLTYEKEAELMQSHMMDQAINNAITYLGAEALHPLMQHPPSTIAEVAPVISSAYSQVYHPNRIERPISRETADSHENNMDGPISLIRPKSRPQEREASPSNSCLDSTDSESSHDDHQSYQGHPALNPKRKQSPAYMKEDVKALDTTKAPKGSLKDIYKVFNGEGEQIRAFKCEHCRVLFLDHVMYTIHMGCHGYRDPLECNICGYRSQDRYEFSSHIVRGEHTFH
T3 sequence (Q96SW2 whole entry): as the sequence (Q96SW2 whole entry) above
T3 sequence (Q16531 whole entry partner): as the sequence (Q16531 whole entry partner) above

[4] = target: T4, IKZF3 (Homo sapiens, UniProt Q96SW2+Q9UKT9); test: as above; type: cell-based; conditions: Western blot, 24 hours of compound treatment, compounds tested at 50 nM and 500 nM (concentration for the table not stated)
T4 construct: effects of the compounds of the present disclosure on the expression of target proteins in cells; endogenous in cells; host or cells: human PBMCs (Milecell Biotechnologies)
T4 sequence (Q9UKT9 whole entry): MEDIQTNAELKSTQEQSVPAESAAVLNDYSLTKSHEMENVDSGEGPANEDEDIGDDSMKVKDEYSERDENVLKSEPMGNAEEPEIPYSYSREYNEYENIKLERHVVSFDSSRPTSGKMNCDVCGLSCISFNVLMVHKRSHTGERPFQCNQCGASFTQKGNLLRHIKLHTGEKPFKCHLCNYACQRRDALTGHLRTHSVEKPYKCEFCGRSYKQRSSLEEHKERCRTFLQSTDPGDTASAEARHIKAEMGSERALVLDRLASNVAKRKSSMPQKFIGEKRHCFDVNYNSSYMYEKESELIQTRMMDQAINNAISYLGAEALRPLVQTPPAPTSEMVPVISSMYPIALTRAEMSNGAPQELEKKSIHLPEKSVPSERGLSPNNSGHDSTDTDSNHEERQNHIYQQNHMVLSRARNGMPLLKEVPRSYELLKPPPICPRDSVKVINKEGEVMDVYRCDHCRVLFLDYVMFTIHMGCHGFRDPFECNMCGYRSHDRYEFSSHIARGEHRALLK
T4 sequence (Q96SW2 whole entry): as the sequence (Q96SW2 whole entry) above
T4 sequence (Q16531 whole entry partner): as the sequence (Q16531 whole entry partner) above

[5] = target: T5, WEE1 (Homo sapiens, UniProt P30291+Q96SW2); test: as above; type: cell-based; conditions: Western blot, 24 hours of compound treatment, compounds tested at 50 nM and 500 nM (concentration for the table not stated)
T5 construct: effects of the compounds of the present disclosure on the expression of target proteins in cells; endogenous in cells; host or cells: human PBMCs (Milecell Biotechnologies)
T5 sequence (P30291 whole entry): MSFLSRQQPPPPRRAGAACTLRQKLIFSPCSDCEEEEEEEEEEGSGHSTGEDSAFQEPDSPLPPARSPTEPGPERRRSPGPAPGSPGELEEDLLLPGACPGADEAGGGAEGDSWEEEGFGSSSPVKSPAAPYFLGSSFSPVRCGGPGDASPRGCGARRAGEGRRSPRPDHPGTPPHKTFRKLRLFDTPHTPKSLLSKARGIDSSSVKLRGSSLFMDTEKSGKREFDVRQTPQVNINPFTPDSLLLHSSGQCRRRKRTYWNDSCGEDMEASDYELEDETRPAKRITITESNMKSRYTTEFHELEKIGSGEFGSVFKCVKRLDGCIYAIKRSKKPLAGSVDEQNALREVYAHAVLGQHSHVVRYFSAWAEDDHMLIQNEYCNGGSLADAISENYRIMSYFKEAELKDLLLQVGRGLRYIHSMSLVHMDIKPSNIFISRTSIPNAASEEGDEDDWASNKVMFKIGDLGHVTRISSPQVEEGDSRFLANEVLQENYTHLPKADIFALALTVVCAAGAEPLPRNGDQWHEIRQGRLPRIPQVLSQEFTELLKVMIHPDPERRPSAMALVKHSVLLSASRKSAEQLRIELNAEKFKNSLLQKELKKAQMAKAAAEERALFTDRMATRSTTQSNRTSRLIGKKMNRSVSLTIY
T5 sequence (Q96SW2 whole entry): as the sequence (Q96SW2 whole entry) above
T5 sequence (Q16531 whole entry partner): as the sequence (Q16531 whole entry partner) above

[6] = tested on: GSPT1; test: as above; type: cell-based, Human; conditions: Western blot, 24 hours of compound treatment, compounds tested at 50 nM and 500 nM (concentration for the table not stated)
[7] = target: T6, human Cereblon WT GST-tagged protein (Homo sapiens, UniProt Q96SW2); test: CRBN-binding affinity, HTRF (CEREBLON BINDING kit); conditions: for inhibition at 0.5 µM: read-out: Inhibition Rate at 0.5 µM (%); for inhibition at 2 µM: read-out: Inhibition Rate at 2 µM (%)
T6 construct: purchased CISBIO 64BDCRBNPEH
T6 sequence (Q96SW2 whole entry): as the sequence (Q96SW2 whole entry) above

SMILES | inhibition at 0.5 µM [7] | inhibition at 2 µM [7] | CK1α substrate protein remaining % [1] | IKZF 1 substrate protein remaining % [2] | IKZF2 substrate protein remaining % [3] | IKZF3 substrate protein remaining % [4] | Wee1 substrate protein remaining % [5] | GSPT1 substrate protein remaining % [6]
O=C1CCC(N2Cc3c(CN4CCN(c5cnnc(Cl)c5Cl)CC4)cccc3C2=S)C(=O)N1 (stereo not drawn) [GT-08815, 3-(4-((4-(5,6-dichloropyridazin-4-yl)piperazin-1-yl)methyl)-1-thioxoisoindolin-2-yl)piperidine-2,6-dione] | 60 to 80% | 80 to 100% | B (80%< substrate protein remaining %≤ 100%) | B (80%< substrate protein remaining %≤ 100%) | B (80%< substrate protein remaining %≤ 100%) | B (80%< substrate protein remaining %≤ 100%) | A (0% ≤ substrate protein remaining % ≤ 80%) | B (80%< substrate protein remaining %≤ 100%)
O=C1CCC(N2Cc3c(CN4CCN(c5nsc6cc(F)ccc56)CC4)cccc3C2=S)C(=O)N1 (stereo not drawn) [GT-08839, 3-(4-((4-(6-fluorobenzo[d]isothiazol-3-yl)piperazin-1-yl)methyl)-1-thioxoisoindolin-2-yl)piperidine-2,6-dione] | 60 to 80% | 80 to 100% | B (80%< substrate protein remaining %≤ 100%) | B (80%< substrate protein remaining %≤ 100%) | B (80%< substrate protein remaining %≤ 100%) | B (80%< substrate protein remaining %≤ 100%) | A (0% ≤ substrate protein remaining % ≤ 80%) | B (80%< substrate protein remaining %≤ 100%)
O=C1CCC(N2Cc3c(CN4CCC(n5cnc6cc(F)ccc65)CC4)cccc3C2=S)C(=O)N1 (stereo not drawn) [GT-08842, 3-(4-((4-(5-fluoro-1H-benzo[d]imidazol-1-yl)piperidin-1-yl)methyl)-1-thioxoisoindolin-2-yl)piperidine-2,6-dione] | 40 to 53% | 80 to 100% | B (80%< substrate protein remaining %≤ 100%) | B (80%< substrate protein remaining %≤ 100%) | B (80%< substrate protein remaining %≤ 100%) | B (80%< substrate protein remaining %≤ 100%) | A (0% ≤ substrate protein remaining % ≤ 80%) | B (80%< substrate protein remaining %≤ 100%)
Cn1cc(C2CCN(Cc3cccc4c3CN(C3CCC(=O)NC3=O)C4=S)CC2)c2ccc(F)cc21 (stereo not drawn) [GT-08844, 3-(4-((4-(6-fluoro-1-methyl-1H-indol-3-yl)piperidin-1-yl)methyl)-1-thioxoisoindolin-2-yl)piperidine-2,6-dione] | 40 to 53% | 60 to 80% | B (80%< substrate protein remaining %≤ 100%) | B (80%< substrate protein remaining %≤ 100%) | B (80%< substrate protein remaining %≤ 100%) | B (80%< substrate protein remaining %≤ 100%) | A (0% ≤ substrate protein remaining % ≤ 80%) | B (80%< substrate protein remaining %≤ 100%)
O=C1CCC(N2Cc3c(CN4CCC(c5c[nH]c6ncccc56)CC4)cccc3C2=S)C(=O)N1 (stereo not drawn) [GT-08848, 3-(4-((4-(1H-pyrrolo[2,3-b]pyridin-3-yl)piperidin-1-yl)methyl)-1-thioxoisoindolin-2-yl)piperidine-2,6-dione] | 30 to 40% | 80 to 100% | B (80%< substrate protein remaining %≤ 100%) | B (80%< substrate protein remaining %≤ 100%) | B (80%< substrate protein remaining %≤ 100%) | B (80%< substrate protein remaining %≤ 100%) | A (0% ≤ substrate protein remaining % ≤ 80%) | B (80%< substrate protein remaining %≤ 100%)

More lines, main results first:

inhibition at 0.5 µM [7] | inhibition at 2 µM [7] | SMILES | CK1α substrate protein remaining % [1] | IKZF 1 substrate protein remaining % [2] | IKZF2 substrate protein remaining % [3] | IKZF3 substrate protein remaining % [4] | Wee1 substrate protein remaining % [5] | GSPT1 substrate protein remaining % [6]
60 to 80% | 80 to 100% | O=C1CCC(N2Cc3c(CN4CCN(c5ccc(Cl)nn5)CC4)cccc3C2=S)C(=O)N1 (stereo not drawn) [GT-08811, 3-(4-((4-(6-chloropyridazin-3-yl)piperazin-1-yl)methyl)-1-thioxoisoindolin-2-yl)piperidine-2,6-dione] | A (0% ≤ substrate protein remaining % ≤ 80%) | A (0% ≤ substrate protein remaining % ≤ 80%) | A (0% ≤ substrate protein remaining % ≤ 80%) | A (0% ≤ substrate protein remaining % ≤ 80%) | A (0% ≤ substrate protein remaining % ≤ 80%) | A (0% ≤ substrate protein remaining % ≤ 80%)
60 to 80% | 80 to 100% | O=C1CCC(N2Cc3c(CN4CCN(c5ncccn5)CC4)cccc3C2=S)C(=O)N1 (stereo not drawn) [GT-08812, 3-(4-((4-(pyrimidin-2-yl)piperazin-1-yl)methyl)-1-thioxoisoindolin-2-yl)piperidine-2,6-dione] | B (80%< substrate protein remaining %≤ 100%) | B (80%< substrate protein remaining %≤ 100%) | B (80%< substrate protein remaining %≤ 100%) | B (80%< substrate protein remaining %≤ 100%) | A (0% ≤ substrate protein remaining % ≤ 80%) | B (80%< substrate protein remaining %≤ 100%)
60 to 80% | 80 to 100% | O=C1CCC(N2Cc3c(CN4CCN(c5cnccn5)CC4)cccc3C2=S)C(=O)N1 (stereo not drawn) [GT-08813, 3-(4-((4-(pyrazin-2-yl)piperazin-1-yl)methyl)-1-thioxoisoindolin-2-yl)piperidine-2,6-dione] | B (80%< substrate protein remaining %≤ 100%) | B (80%< substrate protein remaining %≤ 100%) | B (80%< substrate protein remaining %≤ 100%) | B (80%< substrate protein remaining %≤ 100%) | A (0% ≤ substrate protein remaining % ≤ 80%) | B (80%< substrate protein remaining %≤ 100%)
60 to 80% | 80 to 100% | O=C1CCC(N2Cc3c(CN4CCN(c5ncnc(Cl)c5Cl)CC4)cccc3C2=S)C(=O)N1 (stereo not drawn) [GT-08814, 3-(4-((4-(5,6-dichloropyrimidin-4-yl)piperazin-1-yl)methyl)-1-thioxoisoindolin-2-yl)piperidine-2,6-dione] | B (80%< substrate protein remaining %≤ 100%) | B (80%< substrate protein remaining %≤ 100%) | A (0% ≤ substrate protein remaining % ≤ 80%) | B (80%< substrate protein remaining %≤ 100%) | B (80%< substrate protein remaining %≤ 100%) | B (80%< substrate protein remaining %≤ 100%)
53 to 60% | 60 to 80% | O=C1CCC(N2Cc3c(CN4CCN(c5noc6cc(F)ccc56)CC4)cccc3C2=S)C(=O)N1 (stereo not drawn) [GT-08818, 3-(4-((4-(6-fluorobenzo[d]isoxazol-3-yl)piperazin-1-yl)methyl)-1-thioxoisoindolin-2-yl)piperidine-2,6-dione] | B (80%< substrate protein remaining %≤ 100%) | B (80%< substrate protein remaining %≤ 100%) | B (80%< substrate protein remaining %≤ 100%) | B (80%< substrate protein remaining %≤ 100%) | A (0% ≤ substrate protein remaining % ≤ 80%) | A (0% ≤ substrate protein remaining % ≤ 80%)
53 to 60% | 80 to 100% | O=C1CCC(N2Cc3c(CN4CCN(c5noc6ccncc56)CC4)cccc3C2=S)C(=O)N1 (stereo not drawn) [GT-08838, 3-(4-((4-(isoxazolo[4,5-c]pyridin-3-yl)piperazin-1-yl)methyl)-1-thioxoisoindolin-2-yl)piperidine-2,6-dione] | B (80%< substrate protein remaining %≤ 100%) | B (80%< substrate protein remaining %≤ 100%) | B (80%< substrate protein remaining %≤ 100%) | B (80%< substrate protein remaining %≤ 100%) | A (0% ≤ substrate protein remaining % ≤ 80%) | A (0% ≤ substrate protein remaining % ≤ 80%)
60 to 80% | 80 to 100% | O=C1CCC(N2Cc3c(CN4CCN(c5c[nH]c6ncccc56)CC4)cccc3C2=S)C(=O)N1 (stereo not drawn) [GT-08841, 3-(4-((4-(1H-pyrrolo[2,3-b]pyridin-3-yl)piperazin-1-yl)methyl)-1-thioxoisoindolin-2-yl)piperidine-2,6-dione] | B (80%< substrate protein remaining %≤ 100%) | B (80%< substrate protein remaining %≤ 100%) | B (80%< substrate protein remaining %≤ 100%) | B (80%< substrate protein remaining %≤ 100%) | A (0% ≤ substrate protein remaining % ≤ 80%) | A (0% ≤ substrate protein remaining % ≤ 80%)
